According to article PMC10002220, “In Vivo Reversal of P-Glycoprotein-Mediated Drug Resistance in a Breast Cancer Xenograft and in Leukemia Models Using a Novel, Potent, and Nontoxic Epicatechin EC31” (International Journal of Molecular Sciences, 2023):
pIC50: −log10 of the molar value.

Columns and labels:
K562/P-gp cells = assay: EC31 efflux in K562/P-gp cells; format: cell-based, human; conditions: after 150 min of efflux, preincubated with 1 µM
Method: N = 3 independent experiments.
After incubation, the medium was removed, and cells were washed with cold PBS twice. To the cell pellet, 300 μL of acetonitrile was added. The cells were sonicated for 10 min at 50 Hz using Intertek-CD-3800(A) sonicator. The lysed cells were then spun at 14,000 rpm for 10 min at room temperature. The supernatant containing EC31 was saved and was filtered with 0.45 µm syringe filter before UPLC-MS/MS analysis. For the efflux assay, the cells were preincubated with 1 μM EC31 at 37 °C for 2.5 h. The cells were then washed with PBS, were resuspended in drug-free medium, and were further incubated at 37 °C. The cells were collected at 0, 30, 60, and 150 min, respectively. The intracellular EC31 at different time points was analyzed as described in the Section 4.9.

fibroblast cells = system: fibroblast cells; set-up: method as in PMID 25985195, PMID 34597896; conditions: cited from earlier work
LCC6MDR xenograft = assay: In vivo efficacy in reversing PTX resistance in LCC6MDR tumor xenograft model; conditions: for Doubling time: q2d x 14; for reduction in tumor volume compared to PTX alone / reduction in tumor weight compared to PTX alone: day 30
Method: (A) In vivo toxicity study of EC31 alone and of its combination with PTX was conducted. BALB/c mice were randomized into five groups with five mice in each group. Body weight of BALB/c mice during treatments was measured every two days. The treatment groups included (1) solvent control (5% NMP + 5% Cremophor EL + 90% PBS to dissolve EC31 and 5% Ethanol + 5% Cremophor EL + 90% PBS to dissolve PTX), (2) PTX (12 mg/kg i.v.), (3) EC31 (30 mg/kg i.p.), (4) EC31 (30 mg/kg i.p.) + PTX (12 mg/kg i.v.), or (5) EC31 (60 mg/kg i.p.) + PTX (12 mg/kg i.v.). The administration was performed every other day 12 times (q2d x 12). The loss of body weight or appetite and treatment-related mortality were monitored and defined as toxicity. (B) BALB/c nude mice were subcutaneously xenografted with LCC6MDR. When the tumor reached 150–300 mm^3, the mice were randomized and administered once with (1) EC31 alone, (2) PTX alone, or (3) EC31 + PTX. […] The tumors were taken out, and their weights were measured. Intratumor concentration of EC31 or PTX was measured using UPLC-MS/MS, and the actual concentration of PTX or EC31 was normalized to the tumor weight. […] (C) BALB/c nude mice were subcutaneously xenografted with LCC6MDR. The treatment groups included (1) solvent, (2) PTX (12 mg/kg i.v.) alone, (3) cotreatment with EC31 (30 mg/kg i.p.) being injected 1 h prior to PTX (12 mg/kg i.v.) and with EC31 (30 mg/kg i.p.) then being given in a second injection 5 h post-PTX injection, and (4) cotreatment with EC31 (60 mg/kg i.p.) being injected 1 h prior to PTX injection (12 mg/kg i.v.). Tumor volume and body weight were monitored throughout the treatment period. There were 8 mice in each treatment group. Treatments were given as indicated by the arrows. […] At the end of LCC6MDR xenograft efficacy study (day 30), all tumors were dissected. The tumor volume, tumor weight, and doubling time were measured. The number of animal deaths was recorded during the treatment period. Statistical analysis on tumor volumes of different treatment groups was done by performing two-way ANOVA with Dunnett’s multiple comparison test after treatment period. * represents p < 0.05, ** represents p < 0.01, and *** represents p < 0.001. […] No measure is printed with it.
Here, we tested whether EC31 could reverse P-gp-mediated PTX resistance in the LCC6MDR xenograft model (Figure 5C). The treatment was given every other day 14 times (q2d x 14) from day 0 to day 26.
The LCC6MDR tumor xenograft model was studied as it was previously. About 1 × 10^6 cells of LCC6MDR cells were inoculated subcutaneously (s.c.) into the rear flank of a female BALB/c nude mouse (4–6 weeks old). When a tumor of 200–250 mm^3 was formed, it was removed and cut into cubes of 1 mm^3 and was xenografted s.c. into the rear flank of another female BALB/c nude mouse. Treatments started when the tumor reached 100 mm^3. […] Tumor growth was measured with an electronic caliper on the injection day, and the tumor volume was calculated as reported previously.

P-gp = P-gp (Homo sapiens, UniProt P08183); assay: Vanadate-sensitive P-gp ATPase activity assay (P-gp-Glo); conditions: 70 µM
P-gp, sequence (P08183 whole entry): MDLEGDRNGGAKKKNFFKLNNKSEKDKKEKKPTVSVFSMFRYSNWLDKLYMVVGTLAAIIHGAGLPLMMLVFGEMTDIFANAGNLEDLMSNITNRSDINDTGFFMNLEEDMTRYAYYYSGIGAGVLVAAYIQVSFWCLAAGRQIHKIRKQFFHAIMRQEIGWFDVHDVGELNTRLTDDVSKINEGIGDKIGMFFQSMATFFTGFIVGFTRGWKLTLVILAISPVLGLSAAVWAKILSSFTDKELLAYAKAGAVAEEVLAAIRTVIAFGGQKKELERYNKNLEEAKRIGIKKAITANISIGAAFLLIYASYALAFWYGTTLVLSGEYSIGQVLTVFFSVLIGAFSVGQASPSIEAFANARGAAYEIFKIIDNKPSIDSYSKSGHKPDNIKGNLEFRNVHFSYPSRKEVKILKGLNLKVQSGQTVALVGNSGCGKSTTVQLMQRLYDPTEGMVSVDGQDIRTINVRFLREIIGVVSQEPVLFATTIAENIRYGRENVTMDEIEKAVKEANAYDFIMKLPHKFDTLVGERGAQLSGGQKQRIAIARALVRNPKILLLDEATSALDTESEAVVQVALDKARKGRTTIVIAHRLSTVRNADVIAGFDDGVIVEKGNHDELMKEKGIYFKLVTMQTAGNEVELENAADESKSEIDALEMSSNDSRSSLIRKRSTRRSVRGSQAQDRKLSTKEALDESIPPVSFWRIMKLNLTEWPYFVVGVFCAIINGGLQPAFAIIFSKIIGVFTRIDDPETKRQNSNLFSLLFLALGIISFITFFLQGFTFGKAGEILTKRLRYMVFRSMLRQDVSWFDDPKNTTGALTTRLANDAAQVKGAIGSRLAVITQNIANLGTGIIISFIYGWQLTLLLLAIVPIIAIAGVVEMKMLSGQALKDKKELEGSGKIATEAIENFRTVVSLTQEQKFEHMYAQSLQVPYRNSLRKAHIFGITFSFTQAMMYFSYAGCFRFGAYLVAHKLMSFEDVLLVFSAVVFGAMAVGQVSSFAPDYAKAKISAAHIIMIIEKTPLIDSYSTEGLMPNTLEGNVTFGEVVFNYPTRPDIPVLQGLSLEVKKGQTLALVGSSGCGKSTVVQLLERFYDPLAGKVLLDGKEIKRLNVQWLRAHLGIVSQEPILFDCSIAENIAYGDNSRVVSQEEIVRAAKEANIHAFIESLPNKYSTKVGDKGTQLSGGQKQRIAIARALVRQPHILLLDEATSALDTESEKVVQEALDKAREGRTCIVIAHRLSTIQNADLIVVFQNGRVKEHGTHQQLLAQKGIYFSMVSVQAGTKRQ

[1] = group 3: EC31 30 mg/kg + PTX + EC31 30 mg/kg

For `COc1cc(OC)c2c(c1)O[C@H](c1ccc(OC)c(OC)c1)[C@H](OC(=O)c1ccc(F)c(NC(=O)c3cc(OC)c(OC)c(OC)c3)c1)C2` [EC31], the “EC31 remaining in cells” value (K562/P-gp cells) is listed as about 16%, the pIC50 (fibroblast cells) is listed as under 4.00 and the “Doubling time” value (LCC6MDR xenograft; EC31 30 mg/kg i.p. (−1 h) + PTX 12 mg/kg i.v. + EC31 30 mg/kg i.p. (+5 h)) is listed as 15.0 days. The “Doubling time” value (LCC6MDR xenograft; EC31 60 mg/kg i.p. (−1 h) + PTX 12 mg/kg i.v.) was 12.4 days, the “reduction in tumor volume compared to PTX alone” value (LCC6MDR xenograft; [1]) was 1.6 fold and the “reduction in tumor weight compared to PTX alone” value (LCC6MDR xenograft; [1]) was 1.5 fold. For the same molecule, the “reduction in tumor volume compared to PTX alone” value (LCC6MDR xenograft; group 4: EC31 60 mg/kg + PTX) was 1.4 fold, the “reduction in tumor weight compared to PTX alone” value (LCC6MDR xenograft; group 4: EC31 60 mg/kg + PTX) was 1.4 fold and the “P-gp ATPase activity, fold change relative to basal” value (P-gp) was at most 2.1 fold.
